Data reported in article PMC10741979, “Inhibition of NMDA Receptor Activation in the Rostral Ventrolateral Medulla by Amyloid-β Peptide in Rats” (Biomolecules, 2023).

How the values were obtained:
Assay type in all cases: in vivo, rats
[1] = test system: NMDA receptors in the RVLM; assay: NMDA-induced pressor responses in the RVLM after ICV drug administration
From the text: (§1) The procedure for ICV administration of anesthetized rats was similar to those described in our previous study. Adult male Sprague Dawley 8–10 weeks old rats (300–400 g) were used in this experiment under urethane anesthetized (1.2–1.5 g/kg i.p.). The femoral artery was cannulated with polyethylene tubing (PE 50) and connected with its output to BIOPAC Systems Inc. (MP100 or MP160) to measure pulsatile and mean arterial pressure. After a set of blood pressure recordings, each rat was arranged in a stereotaxic frame for ICV and RVLM microinjection using a stainless still needle connected to the Hamilton microsyringes (10 µL). Drugs were microinjected using a syringe pump (KDS 100) at a rate of 10 µL/min. The magnitude of increases in the blood pressure (pressor responses) induced by microinjection of NMDA (0.14 nmol, 100 nL) into the RVLM every 30 min was used as an index of NMDA receptor function in the RVLM. Aβ and 0.9% saline (5 µL) were applied intracerebroventricularly. The data were processed and calculated before the treatment and at a different period after drug administration.
All values are expressed as mean ± SEM and statistically analyzed using GraphPad Prism version 9.0 for Windows (GraphPad Software, San Diego, CA, USA). We analyzed the original data for NMDA-induced increases in MAP (mmHg) before and after applications of Aβ statistically. The time-effect relationship of Aβ on NMDA-induced pressor responses was analyzed using the repeated measure one-way ANOVA followed by Bonferroni’s multiple comparison post-test. p ≤ 0.05 is considered statistically significant. We compared the effects of Aβ on NMDA-increased mean arterial pressure to the control and expressed them as percentage changes; the peak amplitude of NMDA-induced pressor responses before the application of Aβ is taken as control (i.e., 100%). Immunohistochemical data and ELISA data were analyzed using an unpaired t-test. p ≤ 0.05 is considered statistically significant.

[2] = test system: GluN1; assay: Immunohistochemistry, number of GluN1-immunoreactive neurons in the RVLM; conditions: 10 min after ICV 2 nmol; mean ± SEM, n = 6; saline group 63.2 ± 2.4; no significant difference
Description: (§2) The procedure of immunostaining of RVLM tissue sections was similar to those previously described. The animals were anesthetized with i.p. urethane (1.2–1.5 g/kg). The rat was sacrificed at 10 min following ICV administration of Aβ or saline by transcardial perfusion with 50 mL of saline followed by 300–400 mL of paraformaldehyde (4%) in 0.1 M phosphate buffer (pH 7.4). The RVLM was post-fixed in the same fixative overnight and then cryoprotected in 30% sucrose in 0.05 M phosphate buffer (pH 7.4) for 48 h. Coronal brainstem sections (30 μm) were cut through the segments using a cryostat (Leica CM3050S, Leica Microsystems Nussloch GmbH, Nussloch, Germany). […] For the relative quantification of immunoreactivity, each image field was captured using a CCD camera mounted on a microscope (Nikon Eclipse E800, Corporation, Tokyo, Japan). […] The average number of immunoreactive (IR) neurons on both sides per section was counted and averaged. We randomly took 4–6 sections per animal and calculated the average number of IR neurons representing the animal’s immunoreactivity to the antibody.
(§3) All values are expressed as mean ± SEM and statistically analyzed using GraphPad Prism version 9.0 for Windows (GraphPad Software, San Diego, CA, USA). We analyzed the original data for NMDA-induced increases in MAP (mmHg) before and after applications of Aβ statistically. […]

[3] = test system: pGluN1-serine896; assay: Immunohistochemistry, number of pGluN1-serine896-immunoreactive neurons in the RVLM; conditions: 10 min after ICV 2 nmol; mean ± SEM, n = 6; saline group 48.9 ± 1.8; no significant difference
Description: as §2, §3

[4] = test system: GluN2B; assay: Immunofluorescence, number of GluN2B-IF neurons in the RVLM; conditions: 10 min after ICV 2 nmol; mean ± SEM, n = 7; saline group 55.2 ± 1.4
Description: as §2, §3

[5] = test system: pGluN2B-serine1480; assay: Immunofluorescence, number of pGluN2B-serine1480-IF neurons in the RVLM; conditions: 10 min after ICV 2 nmol; mean ± SEM, n = 6; saline group 45.9 ± 1.0 (n = 8); significant difference
Description: as §2, §3

[6] = test system: NMDA receptors in the RVLM; assay: Pressor response to microinjection of NMDA into the RVLM; conditions: 0.14 nmol
From the text: as §1

[7] = ICV 2 nmol (Aβ1-40 n = 14, Aβ1-42 n = 9), NMDA 0.14 nmol into RVLM every 30 min, urethane-anesthetized male SD rats

Molecule: Aβ1-40: soluble human amyloid-beta peptide 1-40, purchased from Taiclone Biotech Corp.
- effect on NMDA-induced pressor responses in the RVLM ([1]; ICV 0.2 nmol, n = 12, NMDA 0.14 nmol into RVLM every 30 min, urethane-anesthetized male SD rats): slight reduction
- effect on NMDA-induced pressor responses in the RVLM [1, 7]: significantly inhibited
- number of GluN1-IR neurons in the RVLM [2]: 63.2 ± 3.8
- number of pGluN1-serine896-IR neurons in the RVLM [3]: 46.4 ± 0.8
- number of GluN2B-IF neurons in the RVLM [4]: 59.2 ± 2.7
- number of pGluN2B-serine1480-IF neurons in the RVLM [5]: 52.6 ± 2.0

Molecule: CC(C(O)c1ccc(O)cc1)N1CCC(Cc2ccccc2)CC1 (centres unmarked) [ifenprodil]
- effect on NMDA-induced pressor responses in the RVLM ([1]; ICV 0.5 nmol alone, n = 5): did not produce any noticeable changes
- effect on NMDA-induced pressor responses in the RVLM ([1]; ICV 2.5 nmol alone, n = 5): significantly inhibited
- effect of co-administration on the inhibitory effects of Aβ1-40 on NMDA-induced pressor responses ([1]; ICV ifenprodil 0.5 nmol with Aβ1-40 2 nmol, n = 6): attenuated the inhibitory effects

Molecule: Aβ1-42: soluble human amyloid-beta peptide 1-42, purchased from Taiclone Biotech Corp.
- effect on NMDA-induced pressor responses in the RVLM [1, 7]: did not produce any noticeable changes
- effect on NMDA-induced pressor responses in the RVLM on co-administration with ifenprodil ([1]; ICV Aβ1-42 2 nmol with ifenprodil 0.5 nmol, n = 6): little effect
- effect on NMDA-induced pressor responses in the RVLM on co-administration with memantine ([1]; ICV Aβ1-42 2 nmol with memantine 9 nmol, n = 6): did not show noticeable changes

Molecule: CC12CC3CC(C)(C1)CC(N)(C3)C2 [memantine]
- effect on NMDA-induced pressor responses in the RVLM ([1]; ICV 9 nmol alone, n = 6, 10 and 40 min after administration): did not produce any noticeable changes
- effect of co-administration on the inhibitory effects of Aβ1-40 on NMDA-induced pressor responses ([1]; ICV memantine 9 nmol with Aβ1-40 2 nmol, n = 4): disappeared

Molecule: CN[C@H](CC(=O)O)C(=O)O [NMDA, N-methyl-D-aspartate]
- duration of pressor responses ([6]; 100 nL into RVLM): 10 to 15 min
- onset of pressor responses ([6]; 100 nL into RVLM): ≤ 2 min
- effect of microinjection into the RVLM on MAP ([6]; 100 nL, at intervals of 30 min, urethane-anesthetized male SD rats): induced an increase in MAP
